Laboratory results: patent publication US7615361B2, “Toxicity screening methods” (Ceetox, Inc., priority 2006, dated 2009)

Experiments:
[1] = MTT reduction; assay type: cell-based, rat; settings: rat
Description: (§1) One test compound (Compound A) was received as dry powder and evaluated for potential cytotoxicity in a battery of in vitro assays. The compound was tested using both rat cardiomyocytes (CM) from rat neonates and a rat hepatoma (H4IIE) cell line. […] The cell supernatant or the cells themselves were harvested for biochemical analysis. General cytotoxicity was evaluated by monitoring membrane integrity, mitochondrial function, cell proliferation, oxidative stress, and apoptosis. In addition, interaction with P-glycoprotein (PgP) on H4IIE cells and solubility of the test compound were also assessed. The means of each exposure group (n=3-7) were calculated for each assay performed.
(§2) Tetrazolium Dye Reduction: 3-[4,5-dimethylthiazol-2-yl]

[2] = system: H4IIE cells; assay: MemTox membrane leakage (AK / α-GST); assay type: cell-based, rat
Description: as §1
(§3) Experimental Protocol: The test compound was provided and stored at 4° C. until needed. Dosing solutions were prepared in complete culture medium. The rat hepatoma (H4IIE) cell line was used as the test system.
(§4) Membrane Leakage (α-Glutathione S-transferase and/or Adenylate Kinase): The presence of Adenylate Kinase (AK) or α-Glutathione S-transferase (α-GST), both enzyme leakage markers, was measured in the culture medium using an activity assay for Adenylate Kinase and/or an ELISA assay for α-GST. At the end of the exposure period, the medium covering the cells in each well was removed and placed into new 96-well plates with appropriate labeling. […] Luminescence (AK) values were measured with a Packard Fusion or equivalent plate reader, and absorbance (α-GST) values were measured with a Packard SpectraCount™ or equivalent reader at 450 nm and reference absorbance at 650 nm.
(§5) Membrane Leakage (α-Glutathione S-transferase and/or Adenylate Kinase): Leakage of Adenylate Kinase or α-GST from the cell into the culture medium was determined by collecting the culture medium at the end of the exposure period. Thus, the values measured represent total enzyme leakage lost over the exposure period. The control for 100% dead or maximum enzyme release was based on cells treated with 1 mM digitonin at the time of dosing. Percent dead cells relative to digitonin treated cells was determined and then subtracted from 100% to yield the percent live cells.

[3] = system: H4IIE cells; assay: Intracellular ATP levels; assay type: cell-based, rat
Description: as §1, §3
(§6) Intracellular ATP Levels: Cellular Adenosine triphosphate (ATP) was determined with an assay based on a reaction between ATP+D-luciferin+oxygen catalyzed by luciferase to yield Oxyluciferin+AMP+PPi+CO2+light. The emitted light is proportional to the amount of ATP present. […] In addition, a unique cell lysis reagent inhibits endogenous ATPases and therefore stabilizes cellular ATP by preventing its degradation to ADP. ATP is present in all-living cells and declines rapidly upon cell death. In addition, this assay in combination with the MTT assay provides an indicator of mitochondrial activity and energy status of the cell.
(§7) Plates were analyzed immediately or stored at −20° C. until needed. On the day of analysis, the plates were thawed and calibration curve prepared with ATP in the same liquid matrix as samples. ATP was quantified by adding ATP substrate solution and then reading luminescence on a Packard Fusion Luminescence or equivalent plate reader.
(§8) Intracellular ATP Levels: ATP levels in treated cells could be determined by using the regression coefficients obtained from the linear regression analysis of the calibration curve. Thus, values could be expressed as pmoles ATP/million cells. Background corrected luminescence was used to determine percent change relative to controls by dividing treated values by control values and multiplying by 100.

[4] = Intracellular total glutathione (GSH); assay type: cell-based, rat; settings: rat, Total GSH TC50
Description: as §1, §3

[5] = Intracellular ATP levels; assay type: cell-based, rat; settings: rat
Description: as §1, §6, §7, §8

[6] = MemTox membrane leakage (AK / α-GST); assay type: cell-based, rat; settings: rat
Description: as §1, §4, §5

[7] = system: P-glycoprotein (PgP); assay: P-glycoprotein (PgP) binding: MTT with and without cyclosporin A; assay type: cell-based, rat; settings: H4IIE 24 HR; for % Control (Compound + CSA) / % Control (Compound): MTT, 50 μM; for % Control (Compound + CSA): with cyclosporin A; for % Control (Compound): without CSA
Description: Several antiviral drugs are substrates for P-glycoprotein transporter (PgP).
P-glycoprotein (PgP) transport proteins are expressed in the bile canalicular membrane of normal liver. However, in neoplastic cells it is not uncommon to have expression of this transporter system in the plasma membrane. […] The existence of these transporters was evaluated with the Calcein-AM assay and with known substrates of PgP.

[8] = system: H4IIE cells; assay: Cell number (propidium iodide); assay type: cell-based, rat
Description: as §1, §3
Cell Proliferation: Cell proliferation in each well was measured with propidium iodide (PI). This specific nucleic acid binding dye fluoresces when intercalated within the nucleic acids. The 15 nm shift enhances PI fluorescence approximately 20 times while the excitation maxima are shifted 30-40 nm. During method development experiments, it was determined that Triton-X-100 was the best solution to permeabilize the H4IIE cells thereby allowing the PI access to intracellular RNA and DNA. Fluorescence was measured using a Packard Fusion plate reader or equivalent reader at 540 nm excitation and 610 nm emission.
Cell Proliferation: After incubation, the test compound was removed and Triton X-100 solution containing propidium iodide is added. The plate was incubated and read on a fluorescent plate reader. Data was collected as relative fluorescent units (RFU). The blank was subtracted from the final well RFU. It represents the average of the first and last columns which contain no cells on that particular plate. The controls are untreated cells allowed to grow on the same plate. The compounds are represented by several separate RFU data points for each of the tested concentrations. The percent change relative to controls was calculated by dividing the average RFU by the control cell RFU and multiplying by 100.

[9] = system: H4IIE cells; assay: Predicted Ctox from Tox-Panel; assay type: cell-based, rat; settings: 24 HR, estimated sustained plasma concentration where toxicity would be expected in vivo
Description: Once all data for a given cluster of assays are received, the data are analyzed to obtain a detailed profile of the compound's toxicity. For example, most conveniently, the data are collated over a dose response range on a single graph. In such an embodiment, the measurement evaluated for each parameter (i.e., each indicator of cell health) at any given concentration is plotted as a percentage of a control measurement obtained in the absence of the compound. However, it should be noted that the data need not be plotted on a single graph, so long as all the parameters are analyzed collectively to yield detailed information of the effects of the concentration of the compound on the different parameters to yield an overall toxicity profile. As set forth below, this overall toxicity profile will facilitate a determination of a plasma concentration Ctox that is predicted to be toxic in vivo. Ctox represents an estimate of the sustained plasma concentration in vivo that would result in toxicity, such as hepatotoxicity or hematopoietic toxicity.
Studies such as these indicate that a preferred concentration for setting Ctox is the highest concentration at which there is no observed effect on any of the indicators being measured in the cluster analysis, especially a 24-hour cluster analysis. […] It will be apparent that 24 hour assays are more time-effective, and consequently, the 24 hour NOEL/Ctox represents a preferred data point to select as Ctox in a CATS assay. It will also be apparent that, with further time studies, it may be possible to select an equally suitable Ctox at other CATS assay time points (e.g., between 24 and 72 hours, or less than 24 hours).
In certain embodiments, the predicting comprises performing concentration response analyses of measurements from at least three separate assays that are employed in the cluster analysis. For example, in the cell health cluster, such predicting will involve monitoring the concentration response effect of the compound on a first health indicator which monitors cellular replication, a second cell health indicator which monitors mitochondrial function, and a third cell health indicator which monitors membrane integrity. Of course, it is understood that fourth, fifth, sixth or more cell health indicators also may be employed. From these concentration response analyses, the highest concentration of the chemical compound at which a measurable toxic effect of the chemical compound is not observable, i.e. NOEL, is determined and the Ctox is identified as the concentration that correlates to the NOEL. In choosing the concentrations of the compound for analysis, one of skill in the art should devise a dose response regimen which is selected to provide an indication of cell health at concentrations of at least two concentration values higher than the Ctox concentration.
The Ctox (H4IIE) value was developed using 24 hr in vitro toxicity data and was validated by retrospectively evaluating compounds across different classes of drugs in 14-day rat studies in which compounds were administered on a daily basis and pharmacokinetic data was available. […] Thus, Ctox values are only determined for the 24 hr in vitro results. The 6 hr toxicity analyses are typically not performed but are beneficial for interpretation of results when compound toxicity is high (e.g., Ctox≦20 μM).

[10] = system: H4IIE cells; assay: MTT reduction; assay type: cell-based, rat
Description: as §1, §3, §2

[11] = Intracellular total glutathione (GSH); assay type: cell-based, rat; settings: rat
Description: as §1

[12] = Metabolic stability (LC/MS, parent remaining); assay type: in vitro ADME, dog; settings: 1 μM, 30 min at 37° C.
Description: (§9) Metabolic stability was conducted using pooled microsomes form induced (BNF/PB) male rat (Sprague-Dawley) animals and induced (BNF/PB) male dog (Beagle) animals. The test compounds were incubated for 30 min at 37° C. at concentrations of 1 μM. Subsequent LC/MS analysis measured disappearance of the parent molecule. The data are expressed as percent of parent remaining. Positive controls for highly metabolized compounds were included for comparison.
(§10) Metabolic Stability and Profiling by mass spectrometry: Metabolic stability was conducted using pooled male dog (beagle) microsomes and male rat (Sprague-Dawley) microsomes from induced (beta-Naphthoflavone/Phenobarbital, BNF/PB) animals. The test compounds were incubated for 30 min at 37° C. at concentrations of 1 and 10 μM. Subsequent analysis by mass spectrometry measured disappearance of the parent molecule. The data are expressed as percent of parent remaining. Positive controls for highly metabolized compounds were included for comparison.
(§11) Metabolic Stability: The analysis measured disappearance of the parent molecule. The data were expressed as percent of parent remaining. Positive controls for highly metabolized compounds were included for comparison.

[13] = Metabolic stability (LC/MS, parent remaining); assay type: in vitro ADME, rat; settings: 1 μM, 30 min at 37° C.
Description: as §9, §10, §11

[14] = system: rat cardiomyocytes; assay: MTT reduction; assay type: cell-based
Description: as §1, §2

[15] = system: H4IIE cells; assay: Membrane lipid peroxidation (8-isoprostane ELISA); assay type: cell-based, rat
Description: (§12) One test compound (Compound A) was received as dry powder and evaluated for potential cytotoxicity in a battery of in vitro assays. The compound was tested using both rat cardiomyocytes (CM) from rat neonates and a rat hepatoma (H4IIE) cell line. […] Camptothecin and rotenone were included as positive control compounds. The cell supernatant or the cells themselves were harvested for biochemical analysis. General cytotoxicity was evaluated by monitoring membrane integrity, mitochondrial function, cell proliferation, oxidative stress, and apoptosis. In addition, interaction with P-glycoprotein (PgP) on H4IIE cells and solubility of the test compound were also assessed. The means of each exposure group (n=3-7) were calculated for each assay performed. Intra assay variation well-to-well was typically less than 10% with plate to plate variation typically less than 20%.
as §3

[16] = system: H4IIE cells; assay: Intracellular total glutathione (GSH); assay type: cell-based, rat
Description: as §1, §3

[17] = system: rat cardiomyocytes; assay: Intracellular ATP levels; assay type: cell-based
Description: as §1, §6, §7, §8

[18] = system: rat cardiomyocytes; assay: MemTox membrane leakage (AK / α-GST); assay type: cell-based
Description: as §1, §4, §5

[19] = system: rat cardiomyocytes; assay: Intracellular total glutathione (GSH); assay type: cell-based
Description: as §1

[20] = system: rat cardiomyocytes; assay: Membrane lipid peroxidation (8-isoprostane ELISA); assay type: cell-based
Description: as §12

[21] = Metabolic activation (disappearance of GSH); settings: liver microsomes from Phenobarbital/BNF induced rats

CC(C)(C)NC(=O)[C@@H]1CN(Cc2cccnc2)CCN1C[C@@H](O)C[C@@H](Cc1ccccc1)C(=O)N[C@H]1c2ccccc2C[C@H]1O [indinavir]
CC50 at 24 h [1]: > 300 µM
MemTox TC50 ([2]; rat, 24 h): 300 µM
ATP TC50 ([3]; rat, 24 h): 300 µM
CC50 at 24 h [4]: 249 µM
CC50 at 24 h [5]: > 300 µM
CC50 at 24 h [6]: > 300 µM
% Control (Compound + CSA) [7]: 91.3%
% Control (Compound) [7]: 106.0%
% Difference ([7]; 1-20% low, 20-50% moderate, 50-100% high PgP interaction): 13.9%
Cell Number TC50 ([8]; rat, 24 h): 300 µM
Predicted Ctox [9]: 90 µM
MTT TC50 ([10]; rat, 24 h): 300 µM
CC50 at 24 h [11]: 71 µM

Cc1ncc2n1-c1ccc(Cl)cc1C(c1ccccc1F)=NC2 [MIDAZOLAM]
% Parent Remaining Dog Microsomes [12]: 0.0%
% Parent Remaining Rat Microsomes [13]: 0.0%

Cc1cn([C@H]2C[C@H](N=[N+]=[N-])[C@@H](CO)O2)c(=O)[nH]c1=O [AZT]
CC50 [14]: > 300 µM
Membrane Lipid Peroxidation [15]: 0
CC50 [2]: > 300 µM
CC50 [3]: > 300 µM
CC50 [16]: > 300 µM
CC50 [17]: > 300 µM
CC50 [18]: > 300 µM
% Control (Compound + CSA) [7]: 99.0%
% Control (Compound) [7]: 116.6%
CC50 [8]: > 300 µM
CC50 [10]: > 300 µM
CC50 [19]: > 300 µM
Membrane Lipid Peroxidation [20]: 0

CC(C)C(=O)Nc1ccc([N+](=O)[O-])c(C(F)(F)F)c1 [flutamide]
reduction in GSH (metabolic activation) [21]: most pronounced effects
